Experimental data from patent publication US12582664B2, “Treatment of fragile x syndrome with cannabidiol” (Harmony Biosciences Management, Inc., priority 2017, dated 2026).

Key:
[1] = test system: children and adolescents with autism spectrum disorder; assay: Aberrant Behavior Checklist-Community (ABC-C), BRIGHT study; design: species or system human; settings: in vivo
From the text: Another test that can be used by clinicians to measure the severity of symptoms of ASD is the Aberrant Behavior Checklist-Community test (ABC-C). The original Aberrant Behavior Checklist (ABC) was designed to assess behavioral concerns of adults within institutional settings. The original ABC was later adapted to address patients who are not institutionalized and specifically to address subjects diagnosed with ASD. The Aberrant Behavior Checklist-Community (ABC-C) is used by clinicians, doctors, and researchers to access certain behaviors in non-institutionalized patients with ASD. […]
An exploratory open-label safety, tolerability and efficacy study of Zygel™ ZYN002 transdermal gel to 37 children and adolescents with autism spectrum disorder was conducted. […] ASD was confirmed by Diagnostic and Statistical Manual of Mental Disorders, 5th edition (DSM-5) diagnostic criteria to assess the safety and efficacy of ZYN002 in treating ASD-related behaviors as measured by a variety of efficacy assessments. […]
Subjects were administered a 250 or 500 mg total daily dose, administered twice daily, of CBD in the form of ZYN002 CBD transdermal gel for 14 weeks. […] The trial evaluated multiple efficacy assessments, including the ABC-C, PRAS-ASD, Autism Parenting Stress Index, Autism Impact Measure (AIM), and Clinical Global Impression-Severity (CGI-S) and Improvement (CGI-I). […]

[2] = test system: patients with FXS and comorbid ASD; assay: Pooled analysis of Week 12 change in ABC-C Irritability versus placebo; format: in vivo, human
From the text: The data collected from the studies presented herein, and other similar studies were pooled together and analyzed. […] The subjects had moderate to severe symptoms of ASD (ADOS-2, comparison score greater than, or equal to, 5). The data presented in Table 2 is the Week 12 change in ABC-C Irritability of all patients. In previous studies (such as presented in Example 1, Table 1) the data was enriched by removing the non-completers from the analysis and only presenting data from the completers.

## C=C(C)C1CCC(C)=CC1c1c(O)cc(CCCCC)cc1O (stereo not drawn) [CBD, 2-[3-methyl-6-(1-methylethenyl)-2-cyclohexen-1-yl]-5-pentyl-1,3-benzenediol]
[1]
  improvement in irritability, PRAS score >37 compared to ≤37: twice as much improvement in irritability
[2]; ASD subjects
  improvement in irritability, ABC-CFXS Social Avoidance score >7 compared to ≤7: twice as much improvement in irritability
[2]; in vivo
  subjects showing an improvement in irritability, high social avoidance and/or anxiety scores compared to lesser scores: about twice as many subjects
